Molecular target: MYT1 protein (Homo sapiens (Human), UniProt Q99640)
Experiment: Test for binding to ATP binding site of MYT1 (Kinase Tracer 178 / Eu-Anti-GST antibody TR-FRET)
Conditions: ATP binding site of MYT1, 30 minutes at room temperature

Sequence of MYT1 protein (Q99640 whole entry): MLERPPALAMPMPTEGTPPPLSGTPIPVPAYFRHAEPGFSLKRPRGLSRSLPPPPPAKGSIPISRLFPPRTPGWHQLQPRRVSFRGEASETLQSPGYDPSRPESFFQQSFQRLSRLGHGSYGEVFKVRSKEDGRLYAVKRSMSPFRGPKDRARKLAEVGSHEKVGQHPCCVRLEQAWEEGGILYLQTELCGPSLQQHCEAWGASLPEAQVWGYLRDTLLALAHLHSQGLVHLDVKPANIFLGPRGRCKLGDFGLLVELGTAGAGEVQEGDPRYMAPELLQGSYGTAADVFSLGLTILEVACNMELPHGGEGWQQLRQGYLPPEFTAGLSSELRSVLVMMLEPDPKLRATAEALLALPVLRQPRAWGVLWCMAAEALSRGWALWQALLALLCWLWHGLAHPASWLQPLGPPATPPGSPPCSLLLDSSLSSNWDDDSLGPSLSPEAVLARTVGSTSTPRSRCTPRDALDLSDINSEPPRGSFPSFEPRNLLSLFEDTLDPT

Structure (SMILES) | IC50 [nM]
CC(C)(C)c1ccc2c(ccc3c(-c4ccc(F)c5[nH]ncc45)c(N)c(=O)[nH]c32)n1 [Compound C180, 3-Amino-8-tert-butyl-4-(7-fluoro-1H-indazol-4-yl)-1H-1,7-phenanthrolin-2-one] | 41
Cc1cc2c(-c3ccc(F)c4[nH]ncc34)c(N)c(=O)[nH]c2c2cccc(Cl)c12 [Compound B19, 3-Amino-7-chloro-4-(7-fluoro-1H-indazol-4-yl)-6-methyl-1H-benzo[h]quinolin-2-one] | 22
Nc1cc(-c2c(N)c(=O)[nH]c3ccc(Cl)cc23)ccn1 [Compound A47, 3-Amino-4-(2-aminopyridin-4-yl)-6-chloro-1H-quinolin-2-one] | 3300
CC1(C)CC(c2cc3c(-c4ccc(F)c5[nH]ncc45)c(N)c(=O)[nH]c3c3cccnc23)C1 [Compound C167, 3-Amino-6-(3,3-dimethylcyclobutyl)-4-(7-fluoro-1H-indazol-4-yl)-1H-1,7-phenanthrolin-2-one] | 46
Nc1c(-c2ccc(F)c3[nH]ncc23)c2cc(N3CCC(C(F)(F)F)CC3)c3ncccc3c2[nH]c1=O [Compound C131, 3-Amino-4-(7-fluoro-1H-indazol-4-yl)-6-[4-(trifluoromethyl)piperidin-1-yl]-1H-1,7-phenanthrolin-2-one] | 33
CC1(c2cc3c(-c4ccc(F)c5[nH]ncc45)c(N)c(=O)[nH]c3c3cccnc23)CC1 [Compound C142, 3-Amino-4-(7-fluoro-1H-indazol-4-yl)-6-(1-methylcyclopropyl)-1H-1,7-phenanthrolin-2-one] | 18
CCc1cc(Cl)cc2c(-c3ccc(Cl)c4[nH]ncc34)c(N)c(=O)[nH]c12 [Compound A25, 3-Amino-6-chloro-4-(7-chloro-1H-indazol-4-yl)-8-ethyl-1H-quinolin-2-one] | 45
CC(C)c1cc2c(-c3ccc(F)c4[nH]ncc34)c(N)c(=O)[nH]c2c2cccnc12 [Compound C104, 3-Amino-4-(7-fluoro-1H-indazol-4-yl)-6-propan-2-yl-1H-1,7-phenanthrolin-2-one] | 3.4
Nc1c(-c2ccc(F)c3[nH]ncc23)c2cc(OCC(F)F)c3ncccc3c2[nH]c1=O [Compound C16, 3-Amino-6-(2,2-difluoroethoxy)-4-(7-fluoro-1H-indazol-4-yl)-1H-1,7-phenanthrolin-2-one] | 1.1
Nc1c(-c2ccc(F)c3[nH]ncc23)c2cc(N3CCC(N4CCOCC4)CC3)c3ncccc3c2[nH]c1=O [Compound C117, 3-Amino-4-(7-fluoro-1H-indazol-4-yl)-6-(4-morpholin-4-ylpiperidin-1-yl)-1H-1,7-one] | 3.5
Nc1c(-c2cc(F)c(F)c3[nH]ncc23)c2cc(C3CCCC3)c3ncccc3c2[nH]c1=O [Compound C202, 3-Amino-6-cyclopentyl-4-(6,7-difluoro-1H-indazol-4-yl)-1H-1,7-phenanthrolin-2-one] | 7.7
N#CC1(c2cc3c(-c4ccc(F)c5[nH]ncc45)c(N)c(=O)[nH]c3c3cccnc23)CC1 [Compound C95, 1-[3-Amino-4-(7-fluoro-1H-indazol-4-yl)-2-oxo-1H-1,7-phenanthrolin-6-yl]cyclopropane-1-carbonitrile] | 8.7
CC(C)(C)OC(=O)N1CCC(c2cc3c(-c4ccc(F)c5[nH]ncc45)c(N)c(=O)[nH]c3c3cccnc23)CC1 [Compound C99, tert-Butyl 4-[3-amino-4-(7-fluoro-1H-indazol-4-yl)-2-oxo-1H-1,7-phenanthrolin-6-yl]piperidine-1-carboxylate] | 21
CC(=O)Nc1cc2c(-c3ccc(F)c4[nH]ncc34)c(N)c(=O)[nH]c2c2nccnc12 [Compound G8, N-[8-amino-7-(7-fluoro-1H-indazol-4-yl)-9-oxo-10H-pyrido[2,3-f]quinoxalin-5-yl]acetamide] | 1.4
Nc1c(-c2ccc(F)c3[nH]ncc23)c2cc(C3CC3)c3c(Cl)cccc3c2[nH]c1=O [Compound B17, 3-Amino-7-chloro-6-cyclopropyl-4-(7-fluoro-1H-indazol-4-yl)-1H-benzo[h]quinolin-2-one] | 15
Cc1cc2c(-c3ccc(F)c4[nH]ncc34)c(N)c(=O)[nH]c2c2ncncc12 [Compound J2, 8-Amino-7-(7-fluoro-1H-indazol-4-yl)-5-methyl-10H-pyrido[3,2-h]quinazolin-9-one] | 3.1
Nc1c(-c2ccc(F)c3[nH]ncc23)c2cc(OC3CCCCC3)c3ncccc3c2[nH]c1=O [Compound C17, 3-Amino-6-cyclohexyloxy-4-(7-fluoro-1H-indazol-4-yl)-1H-1,7-phenanthrolin-2-one] | 4.5
Nc1c(-c2ccc(F)c3[nH]ncc23)c2cc(O[C@@H]3CCCOC3)c3ncccc3c2[nH]c1=O [Compound C46, 3-Amino-4-(7-fluoro-1H-indazol-4-yl)-6-[(3R)-oxan-3-yl]oxy-1H-1,7-phenanthrolin-2-one] | 2.9
COCCOc1cc2c(-c3ccc(F)c4[nH]ncc34)c(N)c(=O)[nH]c2c2cccnc12 [Compound C14, 3-Amino-4-(7-fluoro-1H-indazol-4-yl)-6-(2-methoxyethoxy)-1H-1,7-phenanthrolin-2-one] | 2.5

Structure (SMILES) | IC50 [nM]
Nc1c(-c2ccc(F)c3[nH]ncc23)c2cc(OCC3CC3)c3nccnc3c2[nH]c1=O [Compound G11, 8-Amino-5-(cyclopropylmethoxy)-7-(7-fluoro-1H-indazol-4-yl)-10H-pyrido[2,3-f]quinoxalin-9-one] | 2.5
Cn1cnc2c3[nH]c(=O)c(N)c(-c4ccc(F)c5[nH]ncc45)c3ccc21 [Compound M3, 7-Amino-6-(7-fluoro-1H-indazol-4-yl)-3-methyl-9H-imidazo[4,5-h]quinolin-8-one] | 99
N#Cc1cc2c(-c3ccc(F)c4[nH]ncc34)c(N)c(=O)[nH]c2c2cccnc12 [Compound C87, 3-Amino-4-(7-fluoro-1H-indazol-4-yl)-2-oxo-1H-1,7-phenanthroline-6-carbonitrile] | 18
Nc1c(-c2cccc(O)c2)c2cc(Br)c3ccccc3c2[nH]c1=O [Compound B4, 3-Amino-6-bromo-4-(3-hydroxyphenyl)-1H-benzo[h]quinolin-2-one] | 27
Cc1cc2c(-c3ccc(F)c4[nH]ncc34)c(N)c(=O)[nH]c2c2cc(Cl)ccc12 [Compound B12, 3-Amino-9-chloro-4-(7-fluoro-1H-indazol-4-yl)-6-methyl-1H-benzo[h]quinolin-2-one] | 20
Nc1c(-c2cc(F)c(F)c3[nH]ncc23)c2cc(C3CCC3)c3ncccc3c2[nH]c1=O [Compound C201, 3-Amino-6-cyclobutyl-4-(6,7-difluoro-1H-indazol-4-yl)-1H-1,7-phenanthrolin-2-one] | 5.7
COc1cc2c(-c3ccc(F)c4[nH]ncc34)c(N)c(=O)[nH]c2c2nccnc12 [Compound G10, 8-Amino-7-(7-fluoro-1H-indazol-4-yl)-5-methoxy-10H-pyrido[2,3-f]quinoxalin-9-one] | 2.2
Nc1c(-c2ccc(F)c3[nH]ncc23)c2cc(N3CCC4(COC4)C3)c3ncccc3c2[nH]c1=O [Compound C120, 3-Amino-4-(7-fluoro-1H-indazol-4-yl)-6-(2-oxa-7-azaspiro[3.4]octan-7-yl)-1H-1,7-one] | 2.9
Cc1nccc2c1c(Br)cc1c(-c3ccc(F)c4[nH]ncc34)c(N)c(=O)[nH]c12 [Compound P2, 3-Amino-6-bromo-4-(7-fluoro-1H-indazol-4-yl)-7-methyl-1H-1,8-phenanthrolin-2-one] | 13
Nc1c(-c2ccc(F)c3[nH]ncc23)c2cc(C3CC3)c3ccc(Cl)cc3c2[nH]c1=O [Compound B10, 3-Amino-9-chloro-6-cyclopropyl-4-(7-fluoro-1H-indazol-4-yl)-1H-benzo[h]quinolin-2-one] | 36
Nc1c(-c2ccc(F)c3[nH]ncc23)c2cc(O[C@@H]3CCOC3)c3ncccc3c2[nH]c1=O [Compound C5, 3-Amino-4-(7-fluoro-1H-indazol-4-yl)-6-[(3R)-oxolan-3-yl]oxy-1H-1,7-phenanthrolin-2-one] | 1.4
COc1cccc(-c2c(N)c(=O)[nH]c3ccc(Cl)cc23)c1 [Compound A42, 3-Amino-6-chloro-4-(3-methoxyphenyl)-1H-quinolin-2-one] | 450
N#Cc1cc2[nH]c(=O)c(N)c(-c3ccc(Cl)c4[nH]ncc34)c2cc1Cl [Compound A29, 3-Amino-6-chloro-4-(7-chloro-1H-indazol-4-yl)-2-oxo-1H-quinoline-7-carbonitrile] | 29
N#C[C@H]1C[C@H](c2cc3c(-c4ccc(F)c5[nH]ncc45)c(N)c(=O)[nH]c3c3cccnc32)C1 [Compound C179, (1r,3r)-3-[3-Amino-4-(7-fluoro-1H-indazol-4-yl)-2-oxo-1H-1,7-phenanthrolin-6-yl]cyclobutane-1-carbonitrile] | 0.84
Cn1ncc2c(Br)cc3c(-c4ccc(F)c5[nH]ncc45)c(N)c(=O)[nH]c3c21 [Compound I1, 7-Amino-4-bromo-6-(7-fluoro-1H-indazol-4-yl)-1-methyl-9H-pyrazolo[4,3-h]quinolin-8-one] | 33
Nc1c(-c2ccc(F)c3[nH]ncc23)c2cc(OC3CCS(=O)(=O)CC3)c3ncccc3c2[nH]c1=O [Compound C47, 3-Amino-6-(1,1-dioxothian-4-yl)oxy-4-(7-fluoro-1H-indazol-4-yl)-1H-1,7-phenanthrolin-2-one] | 4
Nc1c(-c2ccc(F)c3[nH]ncc23)c2cc(OCCC(F)F)c3nccnc3c2[nH]c1=O [Compound G18, 8-Amino-5-(3,3-difluoropropoxy)-7-(7-fluoro-1H-indazol-4-yl)-10H-pyrido[2,3-f]quinoxalin-9-one] | 0.79
CO[C@H]1C[C@H](Oc2cc3c(-c4ccc(F)c5[nH]ncc45)c(N)c(=O)[nH]c3c3cccnc23)C1 [Compound C30, 3-Amino-4-(7-fluoro-1H-indazol-4-yl)-6-((1r,3r)-3-methoxycyclobutoxy)-1,7-phenanthrolin-2(1H)-one] | 5.8
CC(c1cc2c(-c3ccc(F)c4[nH]ncc34)c(N)c(=O)[nH]c2c2cccnc12)C(F)(F)F (centres unmarked) [Compound C168, 3-Amino-4-(7-fluoro-1H-indazol-4-yl)-6-(1,1,1-trifluoropropan-2-yl)-1H-1,7-phenanthrolin-2-one] | 54

Reference: US20260062412A1, “NITROGEN-CONTAINING HETEROCYCLIC COMPOUND HAVING MYT1 INHIBITORY ACTIVITY” (CHUGAI SEIYAKU KABUSHIKI KAISHA, priority 2023, published 2026)
